Here are results for four compounds from US20240319171A1, “METHOD FOR SCREENING SUBSTANCE, SYSTEM FOR SCREENING SUBSTANCE, METHOD FOR PRODUCING A CLUMP FROM STEM CELLS, AND METHOD FOR PRODUCING DIFFERENTIATED CELLS” (priority 2023, published 2024).

Data set [1] deals with human subject 2-derived induced fibroblasts. Nature of the data set: collagen production by induced fibroblasts after adding substance (subject 2). Format: cell-based. The following applies: compared with the control in which the addition was not carried out, FIG. 14B. An excerpt: (§1) Skin cells were collected from a human subject 1 and a human subject 2, and iPS cells were induced from the skin cells from the respective subjects. Further, in the same manner as in Example 2, fibroblasts were induced from the human subject 1-derived iPS cells, and fibroblasts were induced from the human subject 2-derived iPS cells.

Data set [2] relates to human subject 1-derived induced fibroblasts. Briefly: collagen production by induced fibroblasts after adding substance (subject 1). Format: cell-based. The following applies: FIG. 14A; for amount of the collagen produced: human subject 1-derived induced fibroblasts, compared with the control in which the addition was not carried out.
From the text: as §1

The test system is the same in data set [3]. Format: cell-based.
Data set [4] deals with human subject 2-derived induced fibroblasts. As to conditions: among phenoxyethanol, paraben, benzalkonium chloride, sodium salicylate, FIG. 15B. The procedure: In addition, phenoxyethanol, paraben, benzalkonium chloride, and sodium salicylate, which are respectively antiseptic agents, were prepared.

Regarding `CC1=C(/C=C/C(C)=C/C=C/C(C)=C/CO)C(C)(C)CCC1` [retinol], the “amount of the collagen produced” value in data set [1] and in data set [2] was “increased” each time.

Take `OCCOc1ccccc1` [phenoxyethanol]: the “survival rate of cells” value in data set [3] is given as “highest”.

In the case of `O=C1O[C@H]([C@@H](O)CO)C(O)=C1O` [vitamin C], the “amount of the collagen produced” value in data set [1] and in data set [2] was “increased” throughout. For the same compound, in data set [2] (induced fibroblasts derived from human subject 1, among vitamin C, retinol, iPS cell culture medium supernatant), the “effectiveness in increasing the production amount of collagen, compared among added substances” value was “most effective”.

As for `O=C([O-])c1ccccc1O.[Na+]` [sodium salicylate], the “survival rate of cells” value in data set [4] is “highest”.
